From ChEMBL document CHEMBL1201862, “PubChem BioAssay data set” (2004)
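48-hour exposure; five concentrations; linearly interpolated endpoints. Here, GI50 denotes the concentration required for 50% inhibition of growth.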 Active and inactive are the calls of the source. No stated cut-off is given here; in the data, active = GI50 up to about 1.1 µM and inactive = higher.

Columns and labels:
Assay in all cases: inhibition of tumour cell growth, NCI panel, 48 h
786-0 = system: 786-0
ACHN = system: ACHN
DU-145 = system: DU-145
HCC 2998 = system: HCC 2998
HCT-116 = system: HCT-116
IGROV-1 = system: IGROV-1
K562 = system: K562
KM12 = system: KM12
MCF7 = system: MCF7
NCI-H226 = system: NCI-H226
OVCAR-4 = system: OVCAR-4
OVCAR-5 = system: OVCAR-5
RXF 393 = system: RXF 393
SF-295 = system: SF-295
SK-MEL-28 = system: SK-MEL-28
SNB-75 = system: SNB-75
SW-620 = system: SW-620
TK-10 = system: TK-10
UO-31 = system: UO-31

SMILES	GI50 (786-0)	GI50 (ACHN)	GI50 (DU-145)	GI50 (HCC 2998)	GI50 (HCT-116)	GI50 (IGROV-1)	GI50 (K562)	GI50 (KM12)	GI50 (MCF7)	GI50 (NCI-H226)	GI50 (OVCAR-4)	GI50 (OVCAR-5)	GI50 (RXF 393)	GI50 (SF-295)	GI50 (SK-MEL-28)	GI50 (SNB-75)	GI50 (SW-620)	GI50 (TK-10)	GI50 (UO-31)
O=C1C(c2c(O)[nH]c3ccccc23)=Nc2ccc(Br)cc21	9.62 µM (inactive)	14.5 µM (inactive)	8.11 µM (inactive)	25.6 µM (inactive)	24.3 µM (inactive)	3.37 µM (inactive)	27.2 µM (inactive)	17.1 µM (inactive)	1.24 µM (inactive)	18.5 µM (inactive)	14.9 µM (inactive)	49.3 µM (inactive)	12.9 µM (inactive)	22.4 µM (inactive)	> 100 µM (inactive)	14.6 µM (inactive)	39.6 µM (inactive)	23 µM (inactive)	24.6 µM (inactive)
N#Cc1cc2c(cc1Cl)Sc1nnc(Nc3ccccc3)n1S2(=O)=O	2.32 µM (inactive)	1.74 µM (inactive)	2.01 µM (inactive)	1.55 µM (inactive)	2.04 µM (inactive)	2.2 µM (inactive)	1.44 µM (inactive)	2.06 µM (inactive)	8.39 µM (inactive)	2.24 µM (inactive)	2.68 µM (inactive)	1.92 µM (inactive)	1.73 µM (inactive)	3 µM (inactive)	2.26 µM (inactive)	3.4 µM (inactive)	1.52 µM (inactive)	4.22 µM (inactive)	1.78 µM (inactive)
ClCCCCCc1c2nc(c(CCCCCCl)c3ccc([nH]3)c(CCCCCCl)c3nc(c(CCCCCCl)c4ccc1[nH]4)C=C3)C=C2	> 100 µM (inactive)	> 100 µM (inactive)	1 µM (active)	> 100 µM (inactive)	> 100 µM (inactive)	> 100 µM (inactive)	> 100 µM (inactive)	> 100 µM (inactive)	> 100 µM (inactive)	> 100 µM (inactive)	> 100 µM (inactive)	> 100 µM (inactive)	> 100 µM (inactive)	> 100 µM (inactive)	> 100 µM (inactive)	83.4 µM (inactive)	> 100 µM (inactive)	> 100 µM (inactive)	> 100 µM (inactive)
CCC(/C=C/c1ccccc1)=N\NC(=S)N/N=C(/C=C/c1ccccc1)CC	48 µM (inactive)	34.2 µM (inactive)	26.1 µM (inactive)	84.1 µM (inactive)	19 µM (inactive)	55.8 µM (inactive)	19.6 µM (inactive)	31.8 µM (inactive)	41.8 µM (inactive)	32.2 µM (inactive)	35.2 µM (inactive)		38.5 µM (inactive)	87.7 µM (inactive)	> 100 µM (inactive)	> 100 µM (inactive)	> 100 µM (inactive)	> 100 µM (inactive)	13 µM (inactive)
CCCCCCCCCc1cccc(N2C(N)=NC(N)=NC2(C)C)c1	< 0.01 µM (active)	< 0.0158 µM (active)	< 0.0307 µM (active)	< 0.01 µM (active)	< 0.01 µM (active)	< 0.01 µM (active)	< 0.01 µM (active)	0.0139 µM (active)	< 0.0204 µM (active)	1.26 µM (inactive)	< 0.01 µM (active)		1.95 µM (inactive)	0.0148 µM (active)	0.871 µM (active)	0.735 µM (active)	< 0.01 µM (active)	0.0304 µM (active)	1.93 µM (inactive)
Cc1cc([C@H](C#N)c2nc3ccccc3[nH]2)nc(Cl)n1	54.5 µM (inactive)	38.2 µM (inactive)	30.6 µM (inactive)	20.3 µM (inactive)	37.8 µM (inactive)	54.5 µM (inactive)	> 100 µM (inactive)	14.9 µM (inactive)	41.8 µM (inactive)	48 µM (inactive)	40.4 µM (inactive)		33.3 µM (inactive)	> 100 µM (inactive)	39.1 µM (inactive)	31 µM (inactive)	24.2 µM (inactive)	61.1 µM (inactive)	35.6 µM (inactive)
OC(C1CCC=NN1C(O)(C(F)(F)F)C(F)(F)F)(C(F)(F)F)C(F)(F)F (stereo unspecified)	> 10 µM (inactive)	> 10 µM (inactive)	> 10 µM (inactive)	> 10 µM (inactive)	> 10 µM (inactive)	> 10 µM (inactive)	> 10 µM (inactive)	> 10 µM (inactive)	> 10 µM (inactive)	> 10 µM (inactive)	> 10 µM (inactive)	> 10 µM (inactive)	> 10 µM (inactive)	> 10 µM (inactive)	> 10 µM (inactive)	> 10 µM (inactive)		> 10 µM (inactive)	
C=CCC1(O)CC(n2cc(C)c(=O)[nH]c2=O)OC1CO[Si](C)(C)C(C)(C)C (stereo unspecified)	44.1 µM (inactive)	45.6 µM (inactive)	45.8 µM (inactive)	24.5 µM (inactive)	42 µM (inactive)	46.9 µM (inactive)	61.4 µM (inactive)	45.3 µM (inactive)	47.8 µM (inactive)	49.5 µM (inactive)	47 µM (inactive)	61.9 µM (inactive)	29 µM (inactive)	42.9 µM (inactive)	68.9 µM (inactive)	38 µM (inactive)	73.1 µM (inactive)		42.4 µM (inactive)
